Earlier results on three compounds are cited in US8690839B2, “Devices for delivering a medicament and connector for same” (priority 2008, dated 2014).

For series [1] the following is noted: for onset (in words): in vivo.
For series [2] the following is noted: in vivo.

SMILES strings stand for the structures.

For the compound `CCCCNc1ccc(C(=O)OCCN(C)C)cc1` [Tetracaine, tetracaine], the “onset (in words)” value in series [1] is listed as “fast onset”.

Take `CCOC(=O)c1ccc(N)cc1` [Benzocaine, benzocaine]: the toxic dose in series [2] is above 200 mg. In addition, in series [1] (topical use), the onset time entry was “about 30 seconds”.

With `CCCN1CCCC[C@H]1C(=O)Nc1c(C)cccc1C` [Ropivacaine, ropivacaine], the toxic dose entry in series [2] was “about 175 mg”. For the same compound, the “onset (in words)” value in series [1] is given as “slow onset”.
